Results from patent publication US6696424B1, “Cytofectin dimers and methods of use thereof” (Vical Incorporated, priority 1999, dated 2004).

Tested on: B16F10 melanoma tumors
Test: Subcutaneous melanoma tumor model, in vivo transfection with CAT reporter gene
Set-up: species or system BALB/C mice
Details: cytofectin/CAT plasmid complex injected into tumor, tumors collected after forty-eight hours; averages; FIG. 3
Protocol: A) General Subcutaneous Tumor Transfection Assay. Tumors are prepared by injecting a suspension of tumor cells subcutaneously on the side of a mouse strain compatible with the specific tumor type. The tumors are periodically measured. Once the tumors reach a size suitable for injection, the tumor volume is approximated based on the measured diameter assuming a spherical tumor. A complex of the cytofectin compound to be evaluated with a plasmid encoding a reporter gene (e.g., CAT) in a volume of saline equal to the volume of the tumor to be treated is then injected at a flow rate optimized for the particular tumor type. After an appropriate time, the tumors are collected, frozen and then ground up. The reporter gene product is subsequently extracted and the quantity expressed is determined using extraction and assay conditions appropriate for the particular gene product. A variety of tumor types may be evaluated using this general technique. […]
B) Subcutaneous Melanoma Tumor Model. […] When the tumors reached 4.5 mm to 7.0 mm in diameter, the volume of each individual tumor was calculated by measuring the diameter of the tumor and assuming a spherical tumor. For each individual tumor, a volume of the cytofectin/CAT plasmid complex in saline equivalent to the calculated volume of the tumor was injected into the tumor at a rate of 2 ml/min. […] CAT activity was quantitated as described below. […]

Row | SMILES | CAT activity (relative transgene expression vs pDNA transfection alone)
1 | CCCCCCCCCCCCCCOCC(C[N+](C)(C)CCCNC(=O)NCCCCCCNC(=O)NCCC[N+](C)(C)CC(COCCCCCCCCCCCCCC)OCCCCCCCCCCCCCC)OCCCCCCCCCCCCCC (centres unmarked) [SHGU-DMRIE] | greater activity than the naked DNA (pDNA) control
2 | CCCCCCCCCCCCCCOCC(C[N+](C)(C)CCCNC(=O)NCCCCNC(=O)NCCC[N+](C)(C)CC(COCCCCCCCCCCCCCC)OCCCCCCCCCCCCCC)OCCCCCCCCCCCCCC (centres unmarked) [SBGU-DMRIE] | greater activity than the naked DNA (pDNA) control
